Reference: patent US6274334A, “Monoclonal antibody, cell line and immunoassay for ractopamine” (The United States of America as represented by the …, priority 2000, dated 2001)
Values joined by “and” are separate entries in the source; they are usually repeats but may differ in a detail not shown here. Identical values can stand only once. Counter-ions that a name gives are not always drawn.

Tests used:
[1] = test system: antibody produced by hybridoma 5G10; experiment: Competitive indirect ELISA for specificity of the 5G10 antibody (buffer); assay type: binding, mouse; settings: for IC50: means of three separate experiments on three different days, racemic ractopamine average of 15 experiments; for Cross-reactivity: ratio of IC50 for racemic ractopamine to that of test compound times 100; for poorer ligand relative to (1R,3R) stereoisomer of ractopamine: relative to (1R,3R) ractopamine; for competition curve: competitors up to 10,000 ng/mL
Description: The supernatant culture fluid from the cloned hybridomas may also be screened to select for those producing antibodies having a high affinity for ractopamine. Affinity may be measured using a variety of well known techniques, such as ELISA, RIA or equilibrium dialysis using labelled ractopamine. Competitive indirect ELISA (CI-ELISA) is preferred, and is conducted at a final antibody concentration (dilution from tissue culture supernatant) to give 50% of maximal binding to a ractopamine coated substrate or assay well. In accordance with this embodiment, the antibody containing supernatant is added to a ractopamine conjugate-coated solid substrate such as the wells of an assay plate, together with a range of concentrations of free ractopamine as a competitor. Following incubation and washing, bound antibody in the wells is determined in the same manner as the indirect-ELISA. Percent inhibition may be calculated as (1-B/B0)×100 where B is the optical density (OD) of a well with a competitor and B0 is the mean OD of the wells without competitor (control). […] However, for even greater accuracy, the affinity may be alternatively measured at 50% inhibition (IC50).
(§1) The checkerboard method was used to determine the optimum amount of coating antigen-ractopamine-glutarate-BSA (0.1 to 1 μg/well), primary antibody (1:4000 to 1:14,000), and secondary antibody (1:5000 to 1:50,000) required for the indirect competition ELISA. […] Ninety-six well flat bottom ELISA plates were coated with 500 ng/well of ractopamine-glutarate-BSA in 50 mM bicarbonate buffer, pH 9.6, and allowed to shake for 2 hours using an orbital shaker after which the plates were washed 5 times with PBST. Excess binding sites in each well were blocked by incubating with a 1% solution of Teleostean® cold water fish gelatin for 1 hour after which each well was washed 5 times with PBST. Primary antibody (5G10), diluted to 1:14,000, was added (50 μL/well) in the presence of competitor (100 μL/well) and was incubated for 1.5 hours. Competitors were incubated at concentrations of 0, 0.1, 0.5, 1, 5, 10, 50, 100, 500, 1000, 5000, and 10,000 ng/mL. A racemic ractopamine calibration curve was used in every experiment as a quality control. Washing wells five times with PBST terminated the reactions. Goat anti-mouse IgG peroxidase conjugate, diluted 1:50,000 (100 μL/well), was incubated for 1 hour. A TMB substrate solution was used during color development (30 min); the color development was stopped by adding 50 μL/well of 2 N H2 SO4. All incubations were conducted at 37° C. The plates were read at 450 nm and the data analyzed using a four-parameter logistic equation for the competitors that produced competition curves.

5G10 monoclonal antibody = experiment: Competitive ELISA in diluted bovine urine (matrix effects); assay type: binding, mouse
Description: as §1
Ractopamine (0, 0.1, 0.5, 1, 5, 10, 50, 100, 500, 1000, 5000, and 10,000 ng/mL) was added to bovine urine samples diluted 1:2, 1:5, 1:10, and 1:20 with PBST. Urine was collected from a Holstein cow that had not received any ractopamine treatment. Immunoassays in diluted matrices were run according to the procedure described in Example 2. The resulting competition data were fit to a four-parameter logistic equation using the program manager provided by the plate reader (Bio-Rad® Laboratories, Hercules, Calif.) and the IC50 values were determined. The IC50 and B0 from each diluted urine curve were compared with IC50 and B0 values generated from the PBST standard curve. Ractopamine in a 1:10 urine dilution at concentrations of 1, 5, 10, 20 ng/mL were divided and stored at -20° C. until used. For determination of intra-assay variation, each concentration of the spiked urine samples was pipetted into 12 wells, along with the appropriate standard curve ([…], 12 levels) and the data processed using the spiked samples as replicated unknowns. Inter-assay variation was determined in a similar manner on five separate days with duplicate wells for each level of spiked sample.

ractopamine antibody = experiment: Immunoaffinity column retention; assay type: binding, mouse; settings: C-14 labeled, eluted with 0-100% MeOH
Description: Ten milliliters of acites containing ractopamine antibody were diluted with 0.1 M acetate buffer (1:3) and centrifuged. The diluted ascites was passed through a protein-G column and non-bound material was washed off with 0.1 M acetate buffer, pH 5.0, followed by 0.1 M glycine, pH 2.8 to elute the IgG. The protein concentration was determined by OD280 and confirmed by the method of Bradford. The IgG purity was confirmed by 10% SDS-PAGE. Purified IgG was conjugated with CNBr-Sepharose according to a standard procedure. Five milligrams of IgG was conjugated with 1 mL of CNBr-Sepharose to produce the immunoaffinity beads. The immunoaffinity beads were packed to a screening column. A solution containing approximately equal amounts of C-14 labeled ractopamine and ractopamine glucuronide was applied to the column. The column was subsequently eluted with 0, 10%, 30%, 50%, 70% and 100% MeOH; eluants were collected and counted for C-14 activity to verify recoveries. […] Thus, the ractopamine IAC retained both ractopamine and ractopamine metabolites, and has the potential to be used for the rapid isolation of ractopamine and (or) ractopamine metabolites from solution. Such a technique would have wide application in the preparation of samples undergoing a ractopamine confirmatory assay.

polyclonal antibodies = polyclonal antibodies generated from rabbits; cited from earlier work
hogs = settings: dietary, relative to untreated control animals; cited from earlier work
[2] = Wicker et al. 1995; cited from earlier work
[3] = in words; cited from earlier work
[4] = species dosed with ractopamine HCl; cited from earlier work

| Compound | IC50 [1] | Cross-reactivity [1] [%] | further results |
| --- | --- | --- | --- |
| CC(CCc1ccc(O)cc1)NCCc1ccc(O)c(O)c1 (racemic) [Dobutamine] | 50.3 ± 8.1 ng/mL | 5.3 |  |
| CC(CCc1ccc(O)cc1)NCC(O)c1ccc(O)cc1 (racemic) [Ractopamine (racemic), (1R*, 3R*), (1R*, 3S*)-4-hydroxy-β-[[[3-(4-hydroxyphenyl)-1-methylpropyl]amino]methyl]-benzenemethanol hydrochloride] |  | 100 | limit of detection ([1]; 80% B/B0 (IC20)): 0.5 ng/mL; IC50 ([1]; hydrochloride): 2.69 ± 0.36 ng/mL; IC50 ([1]; listed as racemic ractopamine, hydrochloride): 2.7 ng/mL; IC50 (5G10 monoclonal antibody; buffer (PBST)): 2.49 ng/mL; IC50 (5G10 monoclonal antibody; urine dilution 1:2): 11.58 ng/mL; IC50 (5G10 monoclonal antibody; urine dilution 1:5): 4.62 ng/mL; IC50 (5G10 monoclonal antibody; urine dilution 1:10): 3.16 ng/mL; IC50 (5G10 monoclonal antibody; urine dilution 1:20): 3.02 ng/mL; retention on immunoaffinity column (ractopamine antibody): The radioactivity was mainly in the 50% and 100% MeOH fractions; IC50 (polyclonal antibodies): 4.2 ng/mL; growth and carcass effects (hogs): increased growth rates, feed efficiencies, and greater yields of boneless, closely trimmed retail cuts; cross-reaction in immunoassay kits [2]: cross-react poorly with ractopamine |
| CC(CCc1ccc(O[C@@H]2O[C@H](C(=O)O)[C@@H](O)[C@H](O)[C@H]2O)cc1)NCC(O)c1ccc(O)cc1 (single isomer, unassigned) [Ractopamine glucuronide A] | 263 ± 20 ng/mL | 1 | poorer ligand relative to (1R,3R) stereoisomer of ractopamine [1]: over 100 times |
| CC(CCc1ccc(O[C@@H]2O[C@H](C(=O)O)[C@@H](O)[C@H](O)[C@H]2O)cc1)NCC(O)c1ccc(O)cc1 (single isomer, unassigned) [Ractopamine glucuronide B] | 87.8 ± 5.0 ng/mL | 3.1 | poorer ligand relative to (1R,3R) stereoisomer of ractopamine [1]: over 100 times |
| C[C@H](CCc1ccc(O)cc1)NC[C@H](O)c1ccc(O)cc1 [(1R, 3R) -ractopamine] | 0.55 ± 0.09 ng/mL | 489 | detection limit ([1]; in PBST): 0.1 ng/mL; biological activity [3]: confers biological activity to the molecule |
| C[C@@H](CCc1ccc(O)cc1)NC[C@H](O)c1ccc(O)cc1 [(1R, 3S) -ractopamine] | 291 ± 32 ng/mL | 0.9 | decrease of antibody binding (factor) ([1]; α-methyl group in (S) configuration): 100 |
| C[C@H](CCc1ccc(O)cc1)NC[C@@H](O)c1ccc(O)cc1 [(1S, 3R) -ractopamine] | 2.00 ± 0.37 ng/mL | 134 |  |
| C[C@@H](CCc1ccc(O)cc1)NC[C@@H](O)c1ccc(O)cc1 [(1S, 3S) -ractopamine] | 140 ± 23 ng/mL | 1.9 |  |
| CCCCNCC(O)c1ccc(O)cc1 (stereo not drawn) [Bamethane] | 831 ± 11 ng/mL | 0.3 |  |
| CC(C)(C)NCC(O)c1cc(Cl)c(N)c(Cl)c1 (stereo not drawn) [Clenbuterol] |  | < 0.1 | competition curve [1]: did not produce competition curves; cross reaction with the 5G10 antibody ([1]; in words): did not cross react with the 5G10 antibody |
| CC(Cc1ccc(O)cc1)NCC(O)c1cc(O)cc(O)c1 (stereo not drawn) [Fenoterol] | 2682 ± 350 ng/mL | 0.1 |  |
| CC(COc1ccccc1)NC(C)C(O)c1ccc(O)cc1 (stereo not drawn) [Isoxsuprine] | 1391 ± 127 ng/mL | 0.2 |  |
| COc1ccc(C(O)CNC(C)CCc2ccc(O)cc2)cc1 (stereo not drawn) [LY227273] | 2.6 ng/mL and 2.62 ± 0.08 ng/mL | 103 |  |
| C[C@H](CCc1ccc(O)cc1)NCCc1ccc(O)cc1 [R-des-OH-ractopamine] | 1.59 ± 0.09 ng/mL | 169 |  |
| CC(CCc1ccc(O)cc1)NCC(O)c1ccc(O[C@@H]2O[C@H](C(=O)O)[C@@H](O)[C@H](O)[C@H]2O)cc1 (stereo partly drawn) [Ractopamine glucuronide C] | 0.70 ± 0.04 ng/mL | 384 | affinity relative to (1R,3R) ractopamine ([1]; in words): bound to the antibody with an affinity almost as great as (1R,3R) ractopamine; identification as metabolite [4]: has been identified in various species dosed experimentally with ractopamine HCl |
| CC(NCCc1ccc(O)cc1)C(O)c1ccc(O)cc1 (stereo not drawn) [Ritodrine] | 73.8 ± 4.4 ng/mL | 3.6 |  |
| C[C@@H](CCc1ccc(O)cc1)NCCc1ccc(O)cc1 [S-des-OH-ractopamine] | 25.2 ± 1.9 ng/mL | 10.7 |  |
| CC(C)(C)NCC(O)c1ccc(O)c(CO)c1 (stereo not drawn) [Salbutamol] |  | < 0.1 | competition curve [1]: did not produce competition curves |
| OCc1cc(C(O)CNCCCCCCOCCCCc2ccccc2)ccc1O (stereo not drawn) [Salmeterol] | 1519 ± 116 ng/mL | 0.2 |  |
